Results reported in ChEMBL document CHEMBL3272053, “(exo, exo)-2-Aryltropane-3-carboxylic esters, hypoglycemic agents with accompanying analgesic activity” (J Med Chem, 1978).
Calls of active or inactive are those of the source. No cut-off for these calls is given here.

Key:
Rattus norvegicus [1] = experiment: Hypoglycemic activity in fasted Sprague-Dawley rat assessed as reduction of blood glucose level at 78 mg/kg, po relative to control; type: functional; parameters: scale not given: the % may be the effect or the level left
Rattus norvegicus [2] = experiment: Hypoglycemic activity in fasted Sprague-Dawley rat assessed as reduction of blood glucose level at 78 mg/kg, iv relative to control; type: functional, organism-based; parameters: dose 78 mg/kg
Rattus norvegicus [3] = experiment: Hypoglycemic activity in Sprague-Dawley rat assessed as reduction of blood glucose level at 100 mg/kg, po by glucagon-impaired glucose disposal test relative to control; type: functional; parameters: scale not given: the % may be the effect or the level left
Rattus norvegicus [4] = experiment: Narcotic analgesic activity in fasted Sprague-Dawley rat at 240 mg/kg, po measured at 60 mins by D'Amour-Smith tail-flick test relative to control; type: functional
Mus musculus [5] = experiment: Analgesic activity in Swiss-Webster mouse assessed as reduction of acetylcholine-induced writhing at 75 mg/kg, sc relative to control; type: functional; parameters: scale not given: the % may be the effect or the level left; settings: route subcutaneous
Rattus norvegicus [6] = experiment: Toxicity in rat assessed as slight rigidity at 480 mg/kg, po; type: organism-based; parameters: dose 480 mg/kg, route oral; settings: in vivo
Rattus norvegicus [7] = experiment: Toxicity in Sprague-Dawley rat assessed as stiff tail at 480 mg/kg, po; type: organism-based; parameters: dose 480 mg/kg, route oral; settings: in vivo
Rattus norvegicus [8] = experiment: Toxicity in Sprague-Dawley rat assessed as jumpy behavior at 480 mg/kg, po; type: organism-based; parameters: dose 480 mg/kg, route oral; settings: in vivo
Rattus norvegicus [9] = experiment: Narcotic analgesic activity in fasted Sprague-Dawley rat at 480 mg/kg, po measured at 60 mins by D'Amour-Smith tail-flick test relative to control; type: functional
Mus musculus [10] = experiment: Analgesic activity in sc dosed Swiss-Webster mouse assessed as reduction of acetylcholine-induced writhing; type: functional; settings: Mus musculus, Swiss-Webster, sc; for ED50: read-out: ED50
Rattus norvegicus [11] = experiment: Analgesic activity in po dosed rat assessed as reduction of intraarterial bradykinin-induced pain response; type: functional
Rattus norvegicus [12] = experiment: Toxicity in Sprague-Dawley rat assessed as tremor at 480 mg/kg, po; type: organism-based; parameters: dose 480 mg/kg, route oral; settings: in vivo
Rattus norvegicus [13] = experiment: Toxicity in Sprague-Dawley rat assessed as convulsion at 480 mg/kg, po; type: organism-based; parameters: dose 480 mg/kg, route oral; settings: in vivo
Rattus norvegicus [14] = experiment: Hypoglycemic activity in glucose loaded Sprague-Dawley rat assessed as reduction of blood glucose level at 84 mg/kg, po relative to control; type: functional; parameters: scale not given: the % may be the effect or the level left
Rattus norvegicus [15] = experiment: Hypoglycemic activity in Sprague-Dawley rat assessed as reduction of blood glucose level at 87 mg/kg, po by glucagon-impaired glucose disposal test in presence of microsomal enzyme inhibitor SKF 525-A; type: functional, organism-based; parameters: dose 87 mg/kg
Rattus norvegicus [16] = experiment: Toxicity in Sprague-Dawley rat assessed as hyperexcitability at 120 mg/kg, po; type: organism-based; parameters: dose 120 mg/kg, route oral; settings: in vivo
Rattus norvegicus [17] = experiment: Toxicity in Sprague-Dawley rat assessed as tremor at 120 mg/kg, po; type: organism-based; parameters: dose 120 mg/kg, route oral; settings: in vivo
Rattus norvegicus [18] = experiment: Narcotic analgesic activity in fasted Sprague-Dawley rat at 120 mg/kg, po measured at 15 mins by D'Amour-Smith tail-flick test relative to control; type: functional
Rattus norvegicus [19] = experiment: Hypoglycemic activity in Sprague-Dawley rat assessed as reduction of blood glucose level at 87 mg/kg, po by glucagon-impaired glucose disposal test relative to control; type: functional; parameters: scale not given: the % may be the effect or the level left
Rattus norvegicus [20] = experiment: Hypoglycemic activity in Sprague-Dawley rat assessed as reduction of blood glucose level at 300 mg/kg, po by glucagon-impaired glucose disposal test relative to control; type: functional; parameters: scale not given: the % may be the effect or the level left
Rattus norvegicus [21] = experiment: Toxicity in Sprague-Dawley rat assessed as hyperexcitability at 240 mg/kg, po; type: organism-based; parameters: dose 240 mg/kg, route oral; settings: in vivo
Rattus norvegicus [22] = experiment: Hypoglycemic activity in glucose loaded Sprague-Dawley rat assessed as reduction of blood glucose level at 264 mg/kg, po relative to control; type: functional; parameters: scale not given: the % may be the effect or the level left
Rattus norvegicus [23] = experiment: Narcotic analgesic activity in fasted Sprague-Dawley rat at 240 mg/kg, po measured at 15 mins by D'Amour-Smith tail-flick test relative to control; type: functional
Mus musculus [24] = experiment: Analgesic activity in Swiss-Webster mouse assessed as reduction of acetylcholine-induced writhing at 50 mg/kg, po relative to control; type: functional; parameters: scale not given: the % may be the effect or the level left
Rattus norvegicus [25] = experiment: Hypoglycemic activity in Sprague-Dawley rat assessed as reduction of blood glucose level at 88 mg/kg, po by glucagon-impaired glucose disposal test relative to control; type: functional
Rattus norvegicus [26] = experiment: Hypoglycemic activity in Sprague-Dawley rat assessed as reduction of blood glucose level at 78 mg/kg, po by glucagon-impaired glucose disposal test relative to control; type: functional; parameters: scale not given: the % may be the effect or the level left

SMILES: Cl.O=C(O)[C@H]1C[C@H]2CC[C@@H](N2)[C@H]1c1cccs1
- Activity (Rattus norvegicus [1]): <20%
- Activity (Rattus norvegicus [2]): inactive

SMILES: CCCCCCCN1[C@@H]2CC[C@@H]1[C@@H](c1cccs1)[C@@H](C(=O)OC)C2
- Activity (Rattus norvegicus [3]): 40%
- Activity (Rattus norvegicus [4]): 70%
- Activity (Mus musculus [5]): 27%
- Activity (Rattus norvegicus [6]): Toxic
- Activity (Rattus norvegicus [7]): Toxic
- Activity (Rattus norvegicus [8]): Toxic

SMILES: COC(=O)[C@H]1C[C@H]2CC[C@H]([C@H]1c1ccc[nH]1)N2C
- Activity (Rattus norvegicus [3]): 30%
- Activity (Rattus norvegicus [4]): 19%
- Activity (Rattus norvegicus [9]): 86%
- ED50 (Mus musculus [10]): 18 mg/kg
- ED50 (Rattus norvegicus [11]): 8.5 mg/kg
- Activity (Rattus norvegicus [12]): Toxic
- Activity (Rattus norvegicus [13]): Toxic

SMILES: COC(=O)[C@H]1C[C@H]2CC[C@H]([C@H]1C)N2C.Cl
- Activity (Rattus norvegicus [14]): <20%

SMILES: COC(=O)[C@H]1C[C@H]2CC[C@@H](N2)[C@H]1c1ccccc1.Cl
- ED50 (Mus musculus [10]): 4 mg/kg
- Activity (Rattus norvegicus [15]): Active
- Activity (Rattus norvegicus [16]): Toxic
- Activity (Rattus norvegicus [17]): Toxic
- Activity (Rattus norvegicus [18]): 69%
- Activity (Rattus norvegicus [19]): 31%

SMILES: COC(=O)[C@H]1C[C@H]2CC[C@H]([C@H]1c1ccsc1)N2C
- Activity (Rattus norvegicus [20]): 42%
- Activity (Rattus norvegicus [4]): 40%
- ED40 (Mus musculus [10]): 12 mg/kg
- Activity (Rattus norvegicus [21]): Toxic

SMILES: COC(=O)CN1[C@@H]2CC[C@@H]1[C@@H](c1cccs1)[C@@H](C(=O)OC)C2.Cl
- Activity (Rattus norvegicus [22]): 70%
- Activity (Rattus norvegicus [23]): 100%
- Activity (Mus musculus [24]): 33%
- Activity (Rattus norvegicus [25]): inactive

SMILES: CN1[C@@H]2CC[C@@H]1[C@@H](c1ccccc1)[C@@H](C(=O)O)C2
- Activity (Rattus norvegicus [26]): <20%
- Activity (Rattus norvegicus [4]): <20%
- Activity (Rattus norvegicus [23]): <20%
- Activity (Mus musculus [5]): 7%
